{
  "source": "patent US10517889B2",
  "about": "“Modulators of SMAD7 expression” (Ionis Pharmaceuticals, Inc., priority 2017, dated 2019)",
  "key": {"human SMAD7 mRNA [1]": {"system": "human SMAD7 mRNA", "test": "Dose-dependent inhibition of human SMAD7 mRNA expression in Hep3B cells (Example 3, Study 1 and 2)", "type": "cell-based", "settings": "electroporation; for % inhibition of SMAD7 mRNA expression: approximately 16 hours", "summary_of_the_method": "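Hep3B cells, 20,000 per well, electroporated with antisense oligonucleotide at 0.31, 1.25, 5.00 or 20.00 μM (first series) or 0.74, 2.22, 6.67 or 20.00 μM (second series). After ~16 h, SMAD7 mRNA measured by RT-qPCR (RTS5062), normalised to RIBOGREEN total RNA. Percent inhibition vs untreated cells; IC50 derived.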"}, "[2]": {"test": "Pharmacokinetics: oligonucleotide concentration in the plasma on day 28 after oral gavage in beagle dogs (Example 12)", "type": "in vivo", "settings": "200 mg oral gavage", "experimental": "There were 4 animals per group.\nPlasma concentrations of Ionis oligonucleotides were also measured on Day 28 at various time points."}, "[3]": {"test": "Organ weights after subcutaneous administration in CD-1 mice (Example 6)", "type": "in vivo", "settings": "end of study, 50 mg/kg subcutaneously twice a week for 7 weeks", "summary_of_the_method": "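Male CD-1 mice aged 8-9 weeks, 4 per group, were dosed subcutaneously twice weekly for 7 weeks with 50 mg/kg oligonucleotide (100 mg/kg/week), with PBS controls. Organ weights were assessed, and plasma was collected on day 28.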"}, "[4]": {"test": "Plasma chemistry markers after subcutaneous administration in CD-1 mice (Example 6)", "type": "in vivo", "settings": "CD-1 mice plasma at day 46; 50 mg/kg subcutaneously twice a week for 7 weeks"}, "human SMAD7 mRNA [5]": {"system": "human SMAD7 mRNA", "test": "Dose-dependent inhibition of human SMAD7 mRNA expression in A431 cells, oligonucleotide added without transfection (Example 5, Study 1)", "type": "cell-based", "settings": "approximately 48 hours", "summary_of_the_method": "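A431 cells dosed with antisense oligonucleotide at 0.08–20.00 μM by free uptake immediately after plating, 48 h at 37° C. SMAD7 mRNA quantified by qRT-PCR (primer probe set RTS5062), normalised to RiboGreen total RNA. Values are % inhibition versus untreated cells.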"}, "[6]": {"test": "Plasma chemistry markers after oral gavage in beagle dogs (Example 12)", "settings": "200 mg oral gavage for 4 weeks, plasma at day 30"}, "[7]": {"test": "Hematology assays after subcutaneous administration in CD-1 mice (Example 6)", "type": "in vivo", "set-up": "RBC / Eosinophils / Monocytes: unit not given here", "settings": "50 mg/kg subcutaneous twice weekly for 7 weeks", "summary_of_the_method": "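Male CD-1 mice, 8-9 weeks old, 4 per group, given oligonucleotides 50 mg/kg s.c. twice weekly (100 mg/kg/week) for 7 weeks; PBS group as control. Blood analysed on an automated hematology analyzer for blood cell counts and other markers; plasma collected day 28.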"}},
  "note": "pIC50: −log10 of the molar value.",
  "data": [
    {"substance": "830025 (antisense TTTGTAAATCGAAAGC; 3-10-3 cEt gapmer, further chemistry not given here) [compound 830025]", "values": [
      {"measurement": "% inhibition of SMAD7 mRNA expression", "setting": "human SMAD7 mRNA [1]; 740 nM, Study 2, relative to untreated control cells", "result": 42, "unit": "%"},
      {"measurement": "% inhibition of SMAD7 mRNA expression", "setting": "human SMAD7 mRNA [1]; 2220 nM, Study 2", "result": 58, "unit": "%"},
      {"measurement": "% inhibition of SMAD7 mRNA expression", "setting": "human SMAD7 mRNA [1]; 6670.0 nM, Study 2", "result": 72, "unit": "%"},
      {"measurement": "% inhibition of SMAD7 mRNA expression", "setting": "human SMAD7 mRNA [1]; 20000.0 nM, Study 2", "result": 88, "unit": "%"},
      {"measurement": "pIC50", "setting": "human SMAD7 mRNA [1]; Study 2 (740-20000 nM)", "result": "> 6.15"},
      {"measurement": "Oligonucleotide concentration in the plasma on day 28", "setting": "[2]; 2 hr", "result": 13.6, "unit": "ng/mL"},
      {"measurement": "Oligonucleotide concentration in the plasma on day 28", "setting": "[2]; 4 hr", "result": 3.8, "unit": "ng/mL"},
      {"measurement": "Oligonucleotide concentration in the plasma on day 28", "setting": "[2]; 8 hr", "result": 1.7, "unit": "ng/mL"},
      {"measurement": "Oligonucleotide concentration in the plasma on day 28", "setting": "[2]; 24 hr", "result": 0.0, "unit": "ng/mL"},
      {"measurement": "Organ weights, Kidneys", "setting": "[3]", "result": 0.6, "unit": "g"},
      {"measurement": "Organ weights, Liver", "setting": "[3]", "result": 2.2, "unit": "g"},
      {"measurement": "Organ weights, Spleen", "setting": "[3]", "result": 0.2, "unit": "g"},
      {"measurement": "ALT", "setting": "[4]", "result": 208, "unit": "IU/L"},
      {"measurement": "AST", "setting": "[4]", "result": 263, "unit": "IU/L"},
      {"measurement": "Albumin", "setting": "[4]", "result": 2.5, "unit": "g/dL"},
      {"measurement": "BUN", "setting": "[4]", "result": 25, "unit": "mg/dL"},
      {"measurement": "% inhibition of SMAD7 mRNA expression", "setting": "human SMAD7 mRNA [5]; 0.08 μM", "result": 16, "unit": "%"},
      {"measurement": "% inhibition of SMAD7 mRNA expression", "setting": "human SMAD7 mRNA [5]; 0.25 μM", "result": 30, "unit": "%"},
      {"measurement": "% inhibition of SMAD7 mRNA expression", "setting": "human SMAD7 mRNA [5]; 0.74 μM", "result": 22, "unit": "%"},
      {"measurement": "% inhibition of SMAD7 mRNA expression", "setting": "human SMAD7 mRNA [5]; 2.22 μM", "result": 41, "unit": "%"},
      {"measurement": "% inhibition of SMAD7 mRNA expression", "setting": "human SMAD7 mRNA [5]; 6.67 μM", "result": 54, "unit": "%"},
      {"measurement": "% inhibition of SMAD7 mRNA expression", "setting": "human SMAD7 mRNA [5]; 20.00 μM", "result": 67, "unit": "%"},
      {"measurement": "pIC50", "setting": "human SMAD7 mRNA [5]; SMAD7 mRNA", "result": 5.33},
      {"measurement": "ALT (% of control)", "setting": "[6]", "result": "117 % of control"},
      {"measurement": "AST (% of control)", "setting": "[6]", "result": "106 % of control"},
      {"measurement": "Albumin (% of control)", "setting": "[6]", "result": "96 % of control"},
      {"measurement": "BUN (% of control)", "setting": "[6]", "result": "93 % of control"},
      {"measurement": "Bilirubin (% of control)", "setting": "[6]", "result": "96 % of control"},
      {"measurement": "Eosinophils", "setting": "[7]", "result": 3.8},
      {"measurement": "Hematocrit", "setting": "[7]", "result": 38.7, "unit": "%"},
      {"measurement": "Hemoglobin", "setting": "[7]", "result": 12.5, "unit": "g/dL"},
      {"measurement": "Lymphocytes", "setting": "[7]", "result": 83.2, "unit": "%"},
      {"measurement": "MCH", "setting": "[7]", "result": 15.7, "unit": "pg"},
      {"measurement": "MCHC", "setting": "[7]", "result": 32.3, "unit": "g/dL"},
      {"measurement": "MCV", "setting": "[7]", "result": 48.8, "unit": "fL"},
      {"measurement": "Monocytes", "setting": "[7]", "result": 3.2},
      {"measurement": "Neutrophils", "setting": "[7]", "result": 9.3, "unit": "%"},
      {"measurement": "RBC", "setting": "[7]", "result": 8.0},
      {"measurement": "Reticulocytes", "setting": "[7]", "result": 3.3, "unit": "%"},
      {"measurement": "WBC", "setting": "[7]", "result": "4.8 10^3/μL"},
      {"measurement": "platelets", "setting": "[7]", "result": "805.0 10^3/μL"},
      {"measurement": "Basophils", "setting": "[7]; n.d. = below detection levels", "result": "0.6 10^3/μL"}
    ]}
  ]
}
